The target of this assay is T1, ΔF508-CFTR (Homo sapiens, UniProt P13569, DEL508-508).
T1 construct: Primary lung epithelial cells homozygous for the Cystic Fibrosis-causing ΔF508 mutation were differentiated; endogenous in cells; host or cells: primary lung (bronchial) epithelial cells (hBE) homozygous for ΔF508, differentiated at an air-liquid interface
In words: hBE Equivalent Current (Ieq) Assay. Type of assay: cell-based. To be noted: AUC of equivalent chloride current; primary lung epithelial cells homozygous for ΔF508; compound at 10 uM with VX-809 at 1 uM, 24 hours; activity relative to VX-809 (1 uM). As to the method:
Primary lung epithelial cells homozygous for the Cystic Fibrosis-causing ΔF508 mutation were differentiated for a minimum of 4 weeks in an air-liquid interface on Costar 24 well HTS filter plates prior to the equivalent current (Ieq) measurements. Cells were apically mucus-washed for 30 minutes 24 h prior to treatment with compounds. The basolateral media was removed and replaced with media containing the compound of interest diluted to its final concentration from DMSO stocks. Treated cells were incubated at 37° C. and 5% CO2 for 24 hours. At the end of the treatment period, the media was changed to the Ieq experimental solution for 30 minutes before the experiment and plates are maintained in a CO2-free incubator during this period. The plates containing the cells were then placed in pre-warmed heating blocks at 36° C.±0.5 for 15 minutes before measurements are taken. The transepithelial voltage (VT) and conductance (GT) were measured using a custom 24 channel current clamp (TECC-24) with 24 well electrode manifold. The Ieq assay measurements were made following additions with standardized time periods: • 1. The baseline VT and GT values were measured for approximately 20 minutes. • 2. Benzamil was added to block ENaC for 15 minutes. • 3. Forskolin plus VX-770 were added to maximally activate ΔF508-CFTR for 27 minutes. • 4. Bumetanide was added to inhibit the NaK2Cl cotransporter and shut-off secretion of chloride.
The activity data captured was the area under the curve (AUC) for the traces of the equivalent chloride current. The AUC was collected from the time of the forskolin/VX-770 addition until the inhibition by bumetanide addition. Correction in response to compound treatment was scored as the increase in the AUC for compound-treated samples over that of vehicle-treated samples. (** indicates activity ≥200% of VX-809 (1 uM) with compound at 10 uM and VX-809 at 1 uM; * indicates activity 100-200% of VX-809 (1 uM) with compound at 10 uM and VX-809 at 1 uM. ^## indicates activity ≥200% of VX-809 (3 uM) with compound at 10 uM and VX-809 at 3 uM; ^# indicates activity 100-200% of VX-809 (3 uM) with compound at 10 uM and VX-809 at 3 uM.

T1 sequence (P13569 with tags, fused parts or gaps DEL508-508): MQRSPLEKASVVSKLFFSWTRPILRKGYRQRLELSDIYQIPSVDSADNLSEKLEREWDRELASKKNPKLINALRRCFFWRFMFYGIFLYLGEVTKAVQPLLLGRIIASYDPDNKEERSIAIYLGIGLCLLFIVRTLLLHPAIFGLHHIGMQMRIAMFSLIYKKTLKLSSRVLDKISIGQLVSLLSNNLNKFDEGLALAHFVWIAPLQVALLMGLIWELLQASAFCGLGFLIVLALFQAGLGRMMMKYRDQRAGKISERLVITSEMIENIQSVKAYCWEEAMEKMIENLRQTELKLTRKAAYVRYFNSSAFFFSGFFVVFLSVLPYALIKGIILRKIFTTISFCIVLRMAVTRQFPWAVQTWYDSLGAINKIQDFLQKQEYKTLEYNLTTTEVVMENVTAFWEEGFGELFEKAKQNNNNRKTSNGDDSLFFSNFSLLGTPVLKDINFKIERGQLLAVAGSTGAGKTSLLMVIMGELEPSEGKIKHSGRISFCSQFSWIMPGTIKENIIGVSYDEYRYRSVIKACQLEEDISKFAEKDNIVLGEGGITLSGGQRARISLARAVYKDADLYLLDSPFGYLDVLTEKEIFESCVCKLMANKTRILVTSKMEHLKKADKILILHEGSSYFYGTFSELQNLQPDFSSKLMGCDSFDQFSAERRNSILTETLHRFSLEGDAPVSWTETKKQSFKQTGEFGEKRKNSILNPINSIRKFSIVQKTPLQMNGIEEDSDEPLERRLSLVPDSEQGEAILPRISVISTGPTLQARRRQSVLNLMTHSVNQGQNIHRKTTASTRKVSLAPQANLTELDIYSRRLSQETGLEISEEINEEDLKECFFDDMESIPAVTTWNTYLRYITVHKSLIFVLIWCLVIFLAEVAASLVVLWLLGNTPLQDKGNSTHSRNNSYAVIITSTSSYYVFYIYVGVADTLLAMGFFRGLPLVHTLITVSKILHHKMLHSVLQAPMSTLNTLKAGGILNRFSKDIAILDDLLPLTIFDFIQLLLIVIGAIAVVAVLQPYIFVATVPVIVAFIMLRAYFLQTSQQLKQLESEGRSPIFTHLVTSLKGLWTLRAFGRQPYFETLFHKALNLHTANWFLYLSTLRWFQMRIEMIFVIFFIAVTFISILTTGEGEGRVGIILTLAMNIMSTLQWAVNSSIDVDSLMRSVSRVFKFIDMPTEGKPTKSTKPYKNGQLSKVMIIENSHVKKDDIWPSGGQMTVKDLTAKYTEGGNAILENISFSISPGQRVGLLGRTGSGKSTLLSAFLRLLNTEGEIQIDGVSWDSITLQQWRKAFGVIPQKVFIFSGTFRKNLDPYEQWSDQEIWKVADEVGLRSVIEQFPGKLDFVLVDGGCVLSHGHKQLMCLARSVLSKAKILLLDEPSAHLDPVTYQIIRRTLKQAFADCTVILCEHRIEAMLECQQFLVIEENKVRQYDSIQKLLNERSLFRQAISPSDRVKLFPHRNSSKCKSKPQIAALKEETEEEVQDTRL

In the case of `COCCNC(=O)c1cc(-c2ccccc2)n[nH]1`, the Ieq entry was “* (activity 100-200% of VX-809 (1 uM) with compound at 10 uM and VX-809 at 1 uM)”.
On to `O=C(NCC1CCCO1)c1cc(-c2ccccc2)n[nH]1` (stereo not shown), for which the Ieq entry was “* (activity 100-200% of VX-809 (1 uM) with compound at 10 uM and VX-809 at 1 uM)”.
With `O=C(NCCN1CCOCC1)c1cc(-c2ccccc2)n[nH]1`, the Ieq entry was “* (activity 100-200% of VX-809 (1 uM) with compound at 10 uM and VX-809 at 1 uM)”.
In the case of `O=C(NCCCn1ccnc1)c1cc(-c2ccccc2)n[nH]1` it was “* (activity 100-200% of VX-809 (1 uM) with compound at 10 uM and VX-809 at 1 uM)”.
